Bounds are passed on as bounds.

From patent US20080262021A1, “1H-Imidazoquinoline Derivatives as Prote In Kinase Inhibitors” (NOVARTIS AG, priority 2003, published 2008) come the findings set out here.

In the first experiment the target is T1, S6K1 (Homo sapiens, UniProt P23443, T412E).
T1 construct: His (N); made in house; host or cells: Sf9 insect cells (baculovirus, pFastBacHT A), co-infected with GST-PDK1 virus
T1 sequence (P23443 1-421 T412E): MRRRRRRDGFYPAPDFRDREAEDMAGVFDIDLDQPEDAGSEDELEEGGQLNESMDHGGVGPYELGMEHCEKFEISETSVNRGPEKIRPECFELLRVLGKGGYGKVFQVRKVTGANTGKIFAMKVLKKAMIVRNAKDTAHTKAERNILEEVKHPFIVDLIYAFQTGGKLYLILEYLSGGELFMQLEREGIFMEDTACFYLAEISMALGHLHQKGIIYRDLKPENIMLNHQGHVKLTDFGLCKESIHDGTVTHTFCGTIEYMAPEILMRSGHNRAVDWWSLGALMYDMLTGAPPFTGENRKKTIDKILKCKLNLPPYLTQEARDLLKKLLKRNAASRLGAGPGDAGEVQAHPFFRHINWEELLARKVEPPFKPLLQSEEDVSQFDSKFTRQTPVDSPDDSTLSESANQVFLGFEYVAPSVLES
In words: S6K1 kinase inhibition (S6K1ΔCT/T412E, TR-FRET). Type of experiment: biochemical. Conditions: read-out: IC50 Range Class, inhibition of S6K1. From the text: The DNA fragment encoding S6K1ΔCT/T412E is subcloned to the baculovirus donor vector pFastBacHT A to generate a recombinant baculovirus that expresses S6K1ΔCT/T412E. Transfer vectors for S6K1ΔCT/T412E are transfected into the DH10Bac cell line (GIBCO). After selection of white colonies, they are used for viral DNA (bacmid) preparation. Sf9 cells (American Type Culture Collection) cells are then transfected with the viral DNA using Cellfectin reagent. Virus-containing media is collected from the transfected cell culture and is used for infection to increase its titer. For large-scale protein expression, Sf9 cells are co-infected with S6K1ΔCT/T412E and GST-PDK1 virus-containing media with MOI of 2.25 and 1, respectively. After 3 days, the cells expressing the recombinant enzyme are resuspended in the culture medium with a sterilized cell scraper and harvested by centrifugation. The cells are resuspended in 5 volumes of cell pellet of Extraction Buffer (50 mM MOPS pH 7.0, containing 300 mM NaCl, 0.05% Tween-20, 10 mM sodium pyrophosphate, 50 mM β-glycerophosphate, 0.2 mM cantharidic acid and 1× complete-EDTA protease inhibitor cocktail) and then disrupted with 15 strokes of a Dounce homogenizer followed by sonication on ice. The homogenate is centrifuged at 4° C. for 60 minutes at 48,000×g. The supernatant is clarified with a 5 μm filter and subjected to purification with TALON Superflow Resin (Clontech). First, 1 mL of TALON resin per 5 mL of the supernatant was equilibrated with the Extraction Buffer and resuspended in the supernatant followed by gentle agitation for 20 minutes at RT. After centrifugation at 700×g for 5 minutes, supernatant is removed. The resin is washed twice by adding 10 bed volumes of the Extraction Buffer, agitating for 10 minutes at RT, centrifugating at 700×g for 5 minutes, and discarding the supernatant. The resin is then resuspended with the same volume of the Extraction Buffer and transferred to an disposable chromatography column. The packed column is washed once with 10 bed volumes of the Extraction Buffer and additionally with the same volume of Wash Buffer (5 mM imidazole in the Extraction Buffer). Then, the His-tagged S6K1ΔCT/T412E is eluted with four bed volumes of Elution Buffer (150 mM imidazole in the Extraction Buffer).
Measure of enzyme activity: The kinase assay with purified S6K1ΔCT/T412E is performed with TR-FRET (Time-Resolved Fluorescene Resonance Energy Transfer) technology. First, ATP-dependent phosphorylation of the biotinylated substrate peptide corresponding to residues 229-242 of S6 ribosomal protein (Biot-AKRRRLSSLRASTS) is carried out for 1 hour at 37° C. in […] under humidified air. The kinase reaction mixture of the final volume of 9 μL contains 2.57 ng of purified S6K1ΔCT/T412E protein, 50 mM MOPS (pH 7.0), 0.1 mM EGTA, 0.01 mM Na3VO4, 0.05% Tween-20, 0.01% BSA, 1 mM DTT, 10 mM MgCl2, 3 μM ATP, 0.5 μM biotinylated substrate peptide, 1% of DMSO or the text compounds of the formula (I) at the required concentration in 1% DMSO. For measurement of background, 20 mM of EDTA is added to the reaction mixture. […] Phosphorylated peptide indicative of kinase activity is quantitated by exciting the sample at 330 nm and comparing donor emission at 615 nm and acceptor emission at 665 nm by 2101 EnVision HTS multilabel plate reader (Perkin Elmer). […]
Take `NCCc1ccc(-n2cnc3cnc4ccc(-c5ccc(O)cc5)cc4c32)c(C(F)(F)F)c1` [Example 30, 4-{1-[4-(2-Amino-ethyl)-2-trifluoromethyl-phenyl]-1H-imidazo[4,5-c]quinolin-8-yl}-phenol]: the IC50 was no more than 500 nM.
On the same count and under the same terms, as for `Cc1cc(CCN)ccc1-n1cnc2cnc3ccc(-c4ccc5[nH]ccc5c4)cc3c21` [Example 22, 2-{4-[8-(1H-indol-5-yl)-Imidazo[4,5-c]quinolin-1-yl]-3-methyl-phenyl}-ethylamine], the figure is no more than 500 nM; as for `NCCc1ccc(-n2cnc3cnc4cc(F)c(-c5ccc6[nH]ccc6c5)cc4c32)c(Cl)c1` [Example 83, 2-{3-Chloro-4-[7-fluoro-8-(1H-indol-5-yl)-imidazo[4,5-c]quinolin-1-yl]-phenyl}-ethylamine], no more than 500 nM.

In a further experiment the target is PKB (Homo sapiens, UniProt P31749). In words: PKB kinase inhibition (PDK1-activated GST-PKB, 33P peptide assay). Type of experiment: biochemical. Conditions: read-out: IC50 Range Class, inhibition of PKB. On the procedure: GST-PKB [100 ng, specific activity (SA): 0.2 nmole/mg/min.] is incubated for 30 minutes at room temperature (RT) with purified recombinant GST-PDK1 (1 ng, SA: 2 nmole/min./mg). The activation is performed as follows: 0.1 μg of GST-PDK1 (0.05 μL) and 10 μg of GST-PKB (0.45 μL) are mixed in a total volume of 0.75 μL containing 15 μM ATP, 3 mM MgCl2, 20 mM hepes (pH 7.6) for 30 minutes at RT. The reaction is subsequently stopped by adding 0.25 μL containing 30% gycerol (w/w) and 0.06 μL of 500 mM EDTA. 100-500 ng (0.01-0.05 μL) activated GST-PKB is incubated in a final volume of 30 μL with 10 μM of the RRPRTRSFS peptide, 10 mM Mg-acetate, 50 mM MOPS (PH 7.5), 1 mM DTT and 300 μg/mL BSA, 20 μM ATP (0.1 μCi γ-^33P-ATP). The reaction is carried out for 30 minutes at RT in the presence of either 1% DMSO or the text compound of the formula (I) at the required concentration in 1% DMSO. The reaction is terminated by the addition of 20 μL 125 mM EDTA. Thirty (30) μL of each sample is spotted onto P81 Whatman and the paper squares processed. See Ferrari and Thomas, Methods Enzymol, Vol. 200, pp. 159-169 (1991). IC50 values are calculated by linear regression analysis of the percentage inhibition of each compound in duplicate.
Sequence of PKB (P31749 whole entry): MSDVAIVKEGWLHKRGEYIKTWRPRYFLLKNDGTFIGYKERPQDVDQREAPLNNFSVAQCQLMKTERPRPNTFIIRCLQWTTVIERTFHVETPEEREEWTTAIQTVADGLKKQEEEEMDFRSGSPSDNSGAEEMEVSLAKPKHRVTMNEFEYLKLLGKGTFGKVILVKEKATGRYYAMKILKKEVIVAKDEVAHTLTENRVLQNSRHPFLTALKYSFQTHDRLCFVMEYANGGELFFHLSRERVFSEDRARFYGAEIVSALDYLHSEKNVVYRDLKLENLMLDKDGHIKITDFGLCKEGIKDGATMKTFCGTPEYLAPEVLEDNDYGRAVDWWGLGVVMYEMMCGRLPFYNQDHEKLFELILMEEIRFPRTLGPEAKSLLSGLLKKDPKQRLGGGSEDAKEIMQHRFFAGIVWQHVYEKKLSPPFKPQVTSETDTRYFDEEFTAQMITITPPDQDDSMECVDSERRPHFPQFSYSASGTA
Take `NCCc1ccc(-n2cnc3cnc4cc(Cl)c(-c5ccsc5)cc4c32)cc1` [Example 90, 2-[4-(7-Chloro-8-thiophen-3-yl-imidazo[4,5-c]quinolin-1-yl)-phenyl]-ethylamine]: the IC50 is no more than 500 nM.
Same read-out and setting: as for `NCCCc1ccc(-n2cnc3cnc4cc(F)c(-c5ccsc5)cc4c32)cc1` [Example 74, 3-[4-(7-Fluoro-8-thiophen-3-yl-imidazo[4,5-c]quinolin-1-yl)-phenyl]-propylamine], the figure is no more than 500 nM.
For the molecule `NCCc1ccc(-n2cnc3cnc4cc(F)c(-c5cccs5)cc4c32)cc1` [Example 61, 2-[4-(7-Fluoro-8-thiophen-2-yl-imidazo[4,5-c]quinolin-1-yl)-phenyl]-ethylamine], the IC50 is no more than 500 nM.
Same read-out and setting: as for `NCCc1ccc(-n2cnc3cnc4cc(F)c(-c5ccc6[nH]ccc6c5)cc4c32)cc1` [Example 64, 2-{4-[7-Fluoro-8-(1H-indol-5-yl)-imidazo[4,5-c]quinolin-1-yl]-phenyl}-ethylamine], the figure is no more than 500 nM.

For the next experiment, the target named is T2, RET (Homo sapiens, UniProt P07949).
T2 construct: fused on or other part: N-terminal GST tag (from vector pFB-GSTX3)
T2 sequence (P07949 1-1072 isoform P07949-2): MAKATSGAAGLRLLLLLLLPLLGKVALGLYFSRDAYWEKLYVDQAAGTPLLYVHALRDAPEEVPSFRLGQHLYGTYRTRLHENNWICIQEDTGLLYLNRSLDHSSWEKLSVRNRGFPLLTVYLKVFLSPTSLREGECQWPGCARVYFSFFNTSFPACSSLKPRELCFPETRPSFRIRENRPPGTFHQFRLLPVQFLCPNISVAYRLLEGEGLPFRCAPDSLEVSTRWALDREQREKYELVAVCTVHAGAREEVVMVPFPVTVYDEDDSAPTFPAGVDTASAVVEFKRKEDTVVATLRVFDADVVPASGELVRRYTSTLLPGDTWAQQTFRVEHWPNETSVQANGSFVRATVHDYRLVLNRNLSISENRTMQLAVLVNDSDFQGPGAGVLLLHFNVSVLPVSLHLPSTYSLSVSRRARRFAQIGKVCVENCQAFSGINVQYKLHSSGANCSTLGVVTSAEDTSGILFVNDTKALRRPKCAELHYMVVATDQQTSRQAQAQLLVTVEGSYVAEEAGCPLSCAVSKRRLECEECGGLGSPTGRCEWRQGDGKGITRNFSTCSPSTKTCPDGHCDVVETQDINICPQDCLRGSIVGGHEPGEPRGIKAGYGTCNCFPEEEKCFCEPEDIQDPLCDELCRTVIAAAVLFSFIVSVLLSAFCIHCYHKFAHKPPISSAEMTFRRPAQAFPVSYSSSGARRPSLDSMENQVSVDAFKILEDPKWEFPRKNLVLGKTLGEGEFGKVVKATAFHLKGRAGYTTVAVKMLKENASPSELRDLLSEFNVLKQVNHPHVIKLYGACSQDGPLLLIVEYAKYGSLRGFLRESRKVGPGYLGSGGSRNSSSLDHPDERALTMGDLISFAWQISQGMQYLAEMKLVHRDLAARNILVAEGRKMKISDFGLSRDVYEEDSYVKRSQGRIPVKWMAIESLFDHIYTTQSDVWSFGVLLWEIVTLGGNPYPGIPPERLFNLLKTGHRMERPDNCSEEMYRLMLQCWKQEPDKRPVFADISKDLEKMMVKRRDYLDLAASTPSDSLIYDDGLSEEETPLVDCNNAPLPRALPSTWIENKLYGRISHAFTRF
Briefly: RET kinase inhibition (33P filter assay, GST-wtRET or GST-RET-Men2B). Type of experiment: biochemical.
Settings: not given
On the procedure:
RET kinase inhibition is determined as follows: The baculovirus donor vector pFB-GSTX3 is used to generate a recombinant baculovirus that expresses the amino acid region 658-1072 (Swiss Prot No. Q9BTB0) of the intra-cytoplasmic kinase domain of human RET-Men2A which corresponds to the wild-type kinase domain of RET (wtRET) and RET-Men2B, which differs from the wtRET by the activating mutation in the activation loop M918T. The coding sequences for the cytoplasmic domain of wtRET and RET-Men2B are amplified by PCR from the plasmids pBABEpuro RET-Men2A and pBABEpuro RET-Men2B, respectively which are received from Dr. James Fagin, College of Medicine, University of Cincinnati. The amplified DNA fragments and the pFB-GSTX3 vector are made compatible for ligation by digestion with SaII and KpnI. Ligation of these DNA fragments results in the baculovirus donor plasmid pFB-GX3-RET-Men2A and pFB-GX3-RET-Men2B, respectively.
Production of virus: Transfer vectors containing the kinase domains are transfected into the DH10Bac cell line (GIBCO) and plated on selective agar plates. Colonies without insertion of the fusion sequence into the viral genome (carried by the bacteria) are blue. Single, white colonies are picked and viral DNA (bacmid) isolated from the bacteria by standard plasmid purification procedures. Sf9 cells or Sf21 (American Type Culture Collection) cells are then transfected in 25 cm^2 flasks with the viral DNA using Cellfectin reagent.
Determination of small scale protein expression in Sf9 cells: Virus-containing media is collected from the transfected cell culture and used for Infection to increase its titer. Virus-containing media obtained after two rounds of infection is used for large-scale protein expression. For large-scale protein expression 100 cm^2 round tissue culture plates are seeded with 5×10^7 cells/plate and infected with 1 mL of virus-containing media (approximately 5 MOls). After 3 days, the cells are scraped off the plate and centrifuged at 500 rpm for 5 minutes. Cell pellets from 10-20, 100 cm^2 plates, are re-suspended in 50 mL of ice-cold lysis buffer (25 mM tris-HCl, pH 7.5, 2 mM EDTA, 1% NP-40, 1 mM DTT, 1 mM P MSF). The cells are stirred on ice for 15 minutes and then centrifuged at 5,000 rpms for 20 minutes.
Purffication of GST-tagged proteins: The centrifuged cell lysate is loaded onto a 2 mL glutathione-sepharose column (Pharmacia) and washed 3× with 10 mL of 25 mM tris-HCl, pH 7.5, 2 mM EDTA, 1 mM DTT, 200 mM NaCl. The GST-tagged proteins are then eluted by 10 applications (1 mL each) of 25 mM tris-HCl, pH 7.5, 10 mM reduced-glutathione, 100 mM NaCl, 1 mM DTT, 10% glycerol and stored at −70° C.
Measure of enzyme activity: Tyrosine protein kinase assays with either purified GST-wtRET or GST-RET-Men2B protein are carried out in a final volume of 30 μL containing 15 ng of either GST-wtRET or GST-RET-Men2B protein, 20 mM tris-HCl, pH 7.5, 1 mM MnCl2, 10 mM MgCl2, 1 mM DTT, 3 μg/mL poly(Glu, Tyr) 4:1, 1% dimethyl sulfoxide (DMSO), 2.0 μM ATP (γ-[^33P]-ATP 0.1 μCi). The activity is assayed in the presence or absence of inhibitors, by measuring the Incorporation of ^33P from [γ^33P] ATP into poly(Glu, Tyr) 4:1. The assay is carried out in 96-well plates at ambient temperature for 15 minutes under conditions described below and terminated by the addition of 20 μL of 125 mM EDTA. […] Membranes are counted after drying at ambient temperature, mounting in Packard TopCount 96-well frame, and addition of 10 μL/well of Microscint™ (Packard). […]
With `Fc1ccccc1-n1cnc2cnc3ccc(-c4ccncc4)cc3c21` [Example 125, 1-(2-Fluoro-phenyl)-8-pyridin-4-yl-1H-imidazo[4,5-c]quinoline], the “IC50 Range Class, inhibition of RET” value is “B/A”.

The experiment is the same for the next values; noted with them: read-out: IC50 Range Class, inhibition of RET.
With `COc1ccc(OC)c(-c2ccc3ncc4ncn(-c5ccccc5F)c4c3c2)c1` [Example 119, 8-(2,5-Dimethoxy-phenyl)-1-(2-fluoro-phenyl)-1H-imidazo[4,5-c]quinoline], the IC50 was 500 to 1000 nM.
On the same count and under the same terms, as for `CN(C)Cc1cccc(-c2ccc3ncc4ncn(-c5ccccc5F)c4c3c2)c1` [Example 129, {3-[1-(2-Fluoro-phenyl)-1H-imidazo[4,5-c]quinolin-8-yl]-benzyl}-dimethyl-amine], the figure is no more than 500 nM; as for `Oc1ccc(-c2ccc3ncc4ncn(-c5ccccc5F)c4c3c2)cc1` [Example 127, 4-[1-(2-Fluoro-phenyl)-1H-imidazo[4,5-c]quinolin-8-yl]-phenol], no more than 500 nM.
As to `c1ccc(-n2cnc3cnc4ccc(-c5cccc(N6CCNCC6)c5)cc4c32)cc1` [Example 134, 1-Phenyl-8-(3-piperazin-1-yl-phenyl)-1H-imidazo[4,5-c]quinoline], the 50% inhibitory concentration (IC50) was 500 to 1000 nM.
